Data: publication PMC12155096 (International Journal of Molecular Sciences, 2025)
pIC50: −log10 of the molar value. Where two headings read alike, the source gives them in different places.

Tests used:
human CYP2C9 [1] = target: T1, human CYP2C9 (Homo sapiens, UniProt P11712)
human CYP2C19 [2] = target: T2, human CYP2C19 (Homo sapiens, UniProt P33261)
human CYP1A2 [3] = target: T3, human CYP1A2 (Homo sapiens, UniProt P05177)
T3 sequence (P05177 1-516): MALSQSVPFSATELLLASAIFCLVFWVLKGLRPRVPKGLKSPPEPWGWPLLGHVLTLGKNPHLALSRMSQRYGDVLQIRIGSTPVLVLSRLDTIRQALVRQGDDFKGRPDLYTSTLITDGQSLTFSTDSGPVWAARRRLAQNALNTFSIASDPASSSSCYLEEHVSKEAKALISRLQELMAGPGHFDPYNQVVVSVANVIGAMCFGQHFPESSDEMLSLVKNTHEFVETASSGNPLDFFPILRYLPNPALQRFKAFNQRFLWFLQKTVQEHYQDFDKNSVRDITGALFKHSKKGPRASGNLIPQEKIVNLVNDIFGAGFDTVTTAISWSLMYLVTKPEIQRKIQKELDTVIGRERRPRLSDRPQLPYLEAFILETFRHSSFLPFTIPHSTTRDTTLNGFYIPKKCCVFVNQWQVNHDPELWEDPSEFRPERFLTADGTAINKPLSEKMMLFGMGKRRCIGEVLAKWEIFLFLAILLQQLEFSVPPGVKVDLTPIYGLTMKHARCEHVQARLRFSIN

CYP3A4 = CYP3A4 (Homo sapiens, UniProt P08684)
Chain of CYP3A4 (P08684 whole entry): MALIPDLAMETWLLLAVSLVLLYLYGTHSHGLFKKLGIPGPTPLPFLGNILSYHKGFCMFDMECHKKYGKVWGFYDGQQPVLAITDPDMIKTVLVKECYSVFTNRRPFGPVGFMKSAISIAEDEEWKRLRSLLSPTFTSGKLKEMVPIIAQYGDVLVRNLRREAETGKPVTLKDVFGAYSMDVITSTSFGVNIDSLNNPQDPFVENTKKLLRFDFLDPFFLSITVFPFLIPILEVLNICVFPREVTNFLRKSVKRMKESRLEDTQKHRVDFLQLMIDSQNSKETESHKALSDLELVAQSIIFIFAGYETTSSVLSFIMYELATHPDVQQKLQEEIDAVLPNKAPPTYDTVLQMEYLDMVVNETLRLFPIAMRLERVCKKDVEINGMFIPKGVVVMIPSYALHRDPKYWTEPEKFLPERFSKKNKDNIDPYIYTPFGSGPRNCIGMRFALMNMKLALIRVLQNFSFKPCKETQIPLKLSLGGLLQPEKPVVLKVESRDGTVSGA

human CYP2D6 = human CYP2D6 (Homo sapiens, UniProt P10635)
Chain of human CYP2D6 (P10635 whole entry): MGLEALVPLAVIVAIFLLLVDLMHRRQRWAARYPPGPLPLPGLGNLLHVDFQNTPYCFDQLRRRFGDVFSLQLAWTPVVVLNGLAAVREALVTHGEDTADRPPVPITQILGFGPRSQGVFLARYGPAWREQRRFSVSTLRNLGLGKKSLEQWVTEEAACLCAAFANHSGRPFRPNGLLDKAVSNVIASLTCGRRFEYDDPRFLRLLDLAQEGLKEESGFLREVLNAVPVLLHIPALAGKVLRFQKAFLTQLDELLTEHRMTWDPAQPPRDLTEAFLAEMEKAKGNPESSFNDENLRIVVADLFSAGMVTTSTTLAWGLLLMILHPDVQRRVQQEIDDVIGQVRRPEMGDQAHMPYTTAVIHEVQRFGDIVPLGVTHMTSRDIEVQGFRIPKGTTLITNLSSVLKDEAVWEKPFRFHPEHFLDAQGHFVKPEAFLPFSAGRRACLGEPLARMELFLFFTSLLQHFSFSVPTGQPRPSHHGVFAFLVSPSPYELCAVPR

human CYP2C19 [4] = target: T2, human CYP2C19; test: biochemical
human CYP2C9 [5] = target: T1, human CYP2C9; test: biochemical
human CYP1A2 [6] = target: T3, human CYP1A2; test: biochemical
[7] = CYP1A2 AC50 (half-maximal activity concentration)
[8] = CYP2C19 AC50 (half-maximal activity concentration)
[9] = CYP2C9 AC50 (half-maximal activity concentration)

T1 sequence (P11712 whole entry): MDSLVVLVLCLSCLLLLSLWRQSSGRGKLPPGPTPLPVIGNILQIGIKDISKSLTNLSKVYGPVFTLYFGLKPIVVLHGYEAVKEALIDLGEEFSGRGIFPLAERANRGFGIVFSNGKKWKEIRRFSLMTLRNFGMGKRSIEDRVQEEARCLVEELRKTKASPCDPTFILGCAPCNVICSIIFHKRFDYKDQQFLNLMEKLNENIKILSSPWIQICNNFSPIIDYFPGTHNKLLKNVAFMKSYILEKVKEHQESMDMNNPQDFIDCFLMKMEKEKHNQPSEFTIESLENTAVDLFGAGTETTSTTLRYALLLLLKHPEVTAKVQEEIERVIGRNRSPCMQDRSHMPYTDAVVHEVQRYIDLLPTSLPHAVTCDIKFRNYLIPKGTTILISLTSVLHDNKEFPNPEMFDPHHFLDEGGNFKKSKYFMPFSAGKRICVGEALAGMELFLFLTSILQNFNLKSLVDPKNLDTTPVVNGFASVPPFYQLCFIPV
T2 sequence (P33261 whole entry): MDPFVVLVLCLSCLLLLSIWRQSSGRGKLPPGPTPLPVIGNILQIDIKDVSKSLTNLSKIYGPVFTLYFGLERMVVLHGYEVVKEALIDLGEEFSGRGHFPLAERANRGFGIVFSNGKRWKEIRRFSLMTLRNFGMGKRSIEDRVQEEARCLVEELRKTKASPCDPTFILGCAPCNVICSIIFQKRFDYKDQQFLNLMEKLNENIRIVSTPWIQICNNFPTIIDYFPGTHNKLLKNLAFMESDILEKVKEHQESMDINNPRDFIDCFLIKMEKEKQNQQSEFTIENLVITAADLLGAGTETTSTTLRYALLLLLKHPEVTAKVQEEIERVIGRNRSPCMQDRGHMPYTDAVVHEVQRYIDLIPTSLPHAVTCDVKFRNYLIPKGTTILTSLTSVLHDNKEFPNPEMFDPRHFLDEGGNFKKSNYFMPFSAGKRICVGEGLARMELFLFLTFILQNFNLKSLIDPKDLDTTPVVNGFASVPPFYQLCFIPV

Structure (SMILES)	AC50 (human CYP2C9 [1]) [µM]	AC50 (human CYP2C19 [2]) [µM]	AC50 (human CYP1A2 [3]) [µM]	AC50 (CYP3A4) [µM]	CYP2D6 AC50 (half-maximal activity concentration) (human CYP2D6)	CYP2C19 AC50 (half-maximal activity concentration) (human CYP2C19 [2])	also measured
CC(C)(C)C(=O)C=Cc1ccc(Cl)cc1	54	6.98	21.2	20	Inactive	–	–
CC(=O)c1cc(C(C)(C)C)cc2c1CCC2(C)C	27.6	–	34.4	10.5	Inactive	Inconclusive	–
Cl.O.c1cnc2c(c1)ccc1cccnc12	4.59	8.94	10.6	38.5	–	–	AC50 (human CYP2D6): 38.5 µM
CC(C)(C)C1=CC(=O)C(C(C)(C)C)=CC1=O	20.8	7.8	16.1	6.47	Inconclusive inhibitor	–	–
O=S1(=O)CC(Cl)(Cl)C(Cl)(Cl)C1	27.5	60.4	31.2	30.8	–	–	AC50 (human CYP2D6): 48.8 µM
CC(C)(c1ccc(Oc2ccc3c(c2)C(=O)OC3=O)cc1)c1ccc(Oc2ccc3c(c2)C(=O)OC3=O)cc1	–	–	63.2	23.4	–	Inconclusive inhibitor	CYP2C9 AC50 (half-maximal activity concentration) (human CYP2C9 [1]): Inconclusive inhibitor; AC50 (human CYP2D6): 37.9 µM
Cl.Nc1c2ccccc2nc2ccccc12.O	28.8	–	2.13	–	–	Inconclusive activator	CYP3A4 AC50 (half-maximal activity concentration) (CYP3A4): Inactive; AC50 (human CYP2D6): 12.9 µM
CCCOC(=O)c1c(Cl)c(Cl)c(Cl)c(Cl)c1C(=O)OCCC	20.1	12.5	1.72	2.63	Inconclusive inhibitor	–	–
CCOC(=O)CC(=O)Cc1cc(F)c(Cl)nc1Cl	46.3	–	65.1	49.1	Inactive	Inconclusive inhibitor	–
CCOC(=O)N1CCC(n2c(=O)[nH]c3cc(Cl)ccc32)CC1	9.24	16.6	22.6	6.72	Inactive	–	–
C=C(C)C(=O)OCCOc1ccccc1	38.6	28.6	24.5	19.8	Inactive	–	–
C=C(C)C(=O)OCC[N+](C)(C)C.[Cl-]	–	–	10.5	23.4	Inactive	Inactive	CYP2C9 AC50 (half-maximal activity concentration) (human CYP2C9 [1]): Inactive
O=[N+]([O-])c1cccc2cccc([N+](=O)[O-])c12 [1,8-Dinitronaphthalene]	–	–	–	–	Inconclusive inhibitor	–	CYP3A4 AC50 (half-maximal activity concentration) (CYP3A4): Inconclusive inhibitor
Cc1cc(O)c(Cl)c(C)c1Cl [2,4-Dichloro-3,5-dimethylphenol]	–	–	–	–	Inactive	–	AC50 (human CYP2C19 [4]): 71.9 µM; AC50 (human CYP2C9 [5]): 9.3 µM; AC50 (human CYP1A2 [6]): 14.4 µM
Brc1ccccc1-c1ccccc1 [2-Bromobiphenyl]	–	–	–	–	–	–	AC50 (human CYP1A2 [6]; [7]): 17 µM
O=S(=O)(c1ccc(O)cc1)c1ccc(O)cc1 [4,4'-Sulfonyldiphenol]	–	–	–	–	Inactive	–	AC50 (human CYP2C19 [4]; [8]): 16.4 µM; AC50 (human CYP2C9 [5]; [9]): 1.34 µM; CYP1A2 AC50 (half-maximal activity concentration) (human CYP1A2 [3]): Inconclusive inhibitor; CYP3A4 AC50 (half-maximal activity concentration) (CYP3A4): Inactive
CC(=O)c1ccc(O)cc1 [4-Hydroxyacetophenone]	–	–	–	–	Inactive	Inactive	AC50 (human CYP2C9 [5]): 36.2 µM; CYP1A2 AC50 (half-maximal activity concentration) (human CYP1A2 [3]): Inconclusive inhibitor; CYP3A4 AC50 (half-maximal activity concentration) (CYP3A4): Inactive
CCc1oc2ccccc2c1C(=O)c1cc(Br)c(O)c(Br)c1 [Benzbromarone]	–	–	–	–	–	–	AC50 (human CYP1A2 [6]; [7]): 28.9 µM
O=C(c1ccccc1)c1ccccc1 [Benzophenone]	–	–	–	–	–	–	AC50 (human CYP2C9 [5]; [9]): 28.4 µM; AC50 (human CYP1A2 [6]; [7]): 13.7 µM
O=C(OCc1ccccc1)c1ccccc1 [Benzyl benzoate]	–	–	–	–	–	–	AC50 (human CYP2C19 [4]; [8]): 21.3 µM; AC50 (human CYP2C9 [5]; [9]): 27.7 µM; AC50 (human CYP1A2 [6]; [7]): 14.9 µM
NS(=O)(=O)c1cc2c(cc1Cl)CN(C1CCCCC1)C2=O [Chlorexolone]	–	–	–	–	Inactive	Inconclusive activator	AC50 (human CYP2C9 [5]; [9]): 14.4 µM; CYP1A2 AC50 (half-maximal activity concentration) (human CYP1A2 [3]): Inactive; CYP3A4 AC50 (half-maximal activity concentration) (CYP3A4): Inactive
O=C(Nc1ccc(Cl)c(Cl)c1)C1CC1 [Cypromid]	–	–	–	–	–	–	CYP2C9 Efficacy (in parenthesis) (human CYP2C9 [1]; human): 25.27 ± 7.04 (-70 ± 11) %; pIC50 (human CYP2C19 [4]; CYP2C19 IC50 (half-maximal inhibitory concentration)): 4.92; CYP2C19 Efficacy (in parenthesis) (human CYP2C19 [2]; human): 12.07 ± 3.02 (-106 ± 21) %; pIC50 (human CYP2C9 [5]; CYP2C9 IC50 (half-maximal inhibitory concentration)): 4.60; CYP1A2 Efficacy (in parenthesis) (human CYP1A2 [3]; human): 0.54 ± 0.08 (-97 ± 6) %; pIC50 (human CYP1A2 [6]; CYP1A2 IC50 (half-maximal inhibitory concentration)): 6.27
